What was measured:
Derm. dermatonomous = conditions: British Pat. No. 1303171 and application No. 36289/70; cited from earlier work
Cl. perfringens = conditions: British Pat. No. 1303171 and application No. 36289/70; cited from earlier work
[1] = biological target: hydroxymethyldihydropteridine pyrophosphokinase (HMPPS) (Escherichia coli, UniProt P26281); experiment: Inhibition of the enzymes of dihydropteroate biosynthesis (ATP-γ-P32 transfer / dihydropteroate-C14 formation); type: biochemical; conditions: E. coli enzyme extract; tests of Example K; read-out: concentration giving 50% inhibition
hydroxymethyldihydropteridine pyrophosphokinase (HMPPS), sequence (P26281 whole entry): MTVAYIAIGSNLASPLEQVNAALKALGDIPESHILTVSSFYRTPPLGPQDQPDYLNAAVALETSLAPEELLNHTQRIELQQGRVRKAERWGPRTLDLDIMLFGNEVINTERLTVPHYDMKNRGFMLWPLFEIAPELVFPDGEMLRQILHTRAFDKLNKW
Protocol: The inhibiting activity against HMPPS of a selected compound of formula (I) can, for instance, be tested by monitoring the transfer of the terminal phosphate of adenosinetriphosphate ATP-γ-p^32 to `dihydropteridine`. […] Such inhibition may, for instance, be easily and simply carried out by incubating an extract of E. coli with pAb-7-C^14, ATP, Mg and `dihydropteridine`. The formation of the dihydropteroate-C^14 can be quantitatively assayed after separating the unreacted pAB substrate, for instance by chromatography. […] Preferably the value is 25 μM or less, such as in the range between 2 to 12 μM. Generally a value below 7 μM is desirable. […]
(a) An assay for HMPPS was developed in which the transfer of the terminal phosphate of ATP-γ-P^32 to Pt could be monitored and correlated with the amount of inhibition of HMPPS by the compound under test. […]
Tubes 1 to 9 containing the amounts of components shown in the Table, were filled up to 200 μl with distilled water, incubated for 60 minutes at 37° C. and then chilled on ice. […] The charcoal and the filter were then radioactively counted. […]
(b) The activity of the test compound of formula (I) against `synthetase` was determined as follows, by monitoring the formation of dihydropteroate C^14. […]

SMILES: CC1(C)Nc2nc(N)nc(O)c2N=C1CO [2-amino-4-hydroxy-6-hydroxymethyl-7,7-dimethyl-7,8-dihydropteridine]
- bacteriostatic activity (Derm. dermatonomous): particularly effective
- bacteriostatic activity (Cl. perfringens): particularly effective

SMILES: CC1=Nc2c(O)nc(N)nc2NC1(C)C [2-amino-4-hydroxy-6-methyl-7,7-dimethyl-7,8-dihydropteridine]
- bacteriostatic activity (Derm. dermatonomous): particularly effective
- bacteriostatic activity (Cl. perfringens): particularly effective

SMILES: CC1(C)Nc2nc(N)nc(O)c2N=C1COc1ccccc1 [A, 2-Amino-4-hydroxy-6-phenoxymethyl-7,7-dimethyl-7,8-dihydropteridine]
- IC50 [1]: 17 µM

Reference: patent US4156725A (priority 1972, dated 1979)
